Laboratory results published in article PMC3474704 (Clinical cancer research : an official journal of the …, 2012).
Read-outs that look alike come from different tables or passages of the source.

What was measured:
SW620 cells = test: Contact time / scheduling study with gemcitabine in SW620
RSK = test: Kinase profiling at 1 μM: RSK; assay type: biochemical, human
NUAK1 = NUAK1 (Homo sapiens, UniProt O60285); test: Kinase profiling at 1 μM: NUAK1; assay type: biochemical
HT29 [1] = system: HT29
recombinant human CHK1 = recombinant human CHK1 (Homo sapiens, UniProt O14757); test: biochemical
[2] = Plasma protein binding by ultra filtration; assay type: in vitro ADME; settings: mouse
Aurora B = Aurora B (Homo sapiens, UniProt Q96GD4); test: Kinase profiling at 1 μM: Aurora B; assay type: biochemical
Aurora B, sequence (Q96GD4 whole entry): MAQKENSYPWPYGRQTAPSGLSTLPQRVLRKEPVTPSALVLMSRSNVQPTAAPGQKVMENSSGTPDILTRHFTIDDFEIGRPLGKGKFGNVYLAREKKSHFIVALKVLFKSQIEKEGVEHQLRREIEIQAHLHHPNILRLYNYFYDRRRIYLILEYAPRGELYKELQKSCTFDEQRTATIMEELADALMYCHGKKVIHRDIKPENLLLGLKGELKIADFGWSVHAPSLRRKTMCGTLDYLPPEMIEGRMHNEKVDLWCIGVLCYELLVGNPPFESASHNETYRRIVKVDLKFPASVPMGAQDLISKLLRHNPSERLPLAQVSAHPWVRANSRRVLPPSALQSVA

HT29 xenografts = test: HT29 xenograft growth delay, combination with gemcitabine; assay type: in vivo, mouse
[3] = system: pS296, pS317 and pS345 CHK1; test: Western blotting of CHK1 phosphorylation biomarkers in HT29 cells; assay type: cell-based, human; settings: SN38, up to 5μM
CDK1 [4] = target: T1, CDK1 (Homo sapiens, UniProt P06493); settings: versus CHK1
T1 sequence (P06493 whole entry, looked up): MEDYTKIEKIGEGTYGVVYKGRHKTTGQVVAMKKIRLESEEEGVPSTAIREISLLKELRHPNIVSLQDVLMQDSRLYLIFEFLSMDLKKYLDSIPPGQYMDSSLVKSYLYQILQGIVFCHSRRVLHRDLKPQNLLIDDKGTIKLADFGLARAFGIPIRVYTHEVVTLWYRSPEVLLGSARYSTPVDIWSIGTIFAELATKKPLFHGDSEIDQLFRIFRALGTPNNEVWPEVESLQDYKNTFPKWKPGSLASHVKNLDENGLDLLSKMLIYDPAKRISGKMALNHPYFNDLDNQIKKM

[5] = system: S296 CHK1 autophosphorylation; test: Biomarker changes in HT29 xenografts; assay type: in vivo, mouse; settings: 100 or 150mg/kg p.o. with gemcitabine 100mg/kg i.v., P<0.05
HT29 [6] = test: cells; settings: Homo sapiens, HT-29, 96 h
[7] = system: MYCN-driven neuroblastoma; test: Single agent activity in TH-MYCN transgenic mouse model of neuroblastoma; assay type: in vivo
CHK2 = CHK2 (Homo sapiens, UniProt O96017); test: CHK2 IC50 determination; assay type: biochemical
CHK2, sequence (O96017 whole entry): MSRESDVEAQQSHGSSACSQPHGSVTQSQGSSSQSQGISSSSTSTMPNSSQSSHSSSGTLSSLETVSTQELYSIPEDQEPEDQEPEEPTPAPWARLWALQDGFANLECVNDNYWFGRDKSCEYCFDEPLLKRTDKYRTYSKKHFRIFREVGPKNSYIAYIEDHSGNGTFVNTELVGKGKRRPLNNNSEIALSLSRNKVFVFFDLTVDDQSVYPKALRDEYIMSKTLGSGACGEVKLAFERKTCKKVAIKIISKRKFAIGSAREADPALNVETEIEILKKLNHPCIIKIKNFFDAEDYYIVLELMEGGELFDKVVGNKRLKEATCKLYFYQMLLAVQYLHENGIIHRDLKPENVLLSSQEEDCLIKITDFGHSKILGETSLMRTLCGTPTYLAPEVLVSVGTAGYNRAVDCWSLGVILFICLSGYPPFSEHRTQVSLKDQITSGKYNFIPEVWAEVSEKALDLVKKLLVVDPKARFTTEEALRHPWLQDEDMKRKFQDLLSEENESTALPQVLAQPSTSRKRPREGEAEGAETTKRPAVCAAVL

Calu6 [8] = system: Calu6
HT29 tumors = test: HT29 xenograft growth delay, combination with irinotecan; assay type: in vivo, mouse; settings: for growth delay: HT29 tumors
CHK1 [9] = target: T2, CHK1 (Homo sapiens, UniProt O14757); test: cell-based
T2 sequence (O14757 1-476): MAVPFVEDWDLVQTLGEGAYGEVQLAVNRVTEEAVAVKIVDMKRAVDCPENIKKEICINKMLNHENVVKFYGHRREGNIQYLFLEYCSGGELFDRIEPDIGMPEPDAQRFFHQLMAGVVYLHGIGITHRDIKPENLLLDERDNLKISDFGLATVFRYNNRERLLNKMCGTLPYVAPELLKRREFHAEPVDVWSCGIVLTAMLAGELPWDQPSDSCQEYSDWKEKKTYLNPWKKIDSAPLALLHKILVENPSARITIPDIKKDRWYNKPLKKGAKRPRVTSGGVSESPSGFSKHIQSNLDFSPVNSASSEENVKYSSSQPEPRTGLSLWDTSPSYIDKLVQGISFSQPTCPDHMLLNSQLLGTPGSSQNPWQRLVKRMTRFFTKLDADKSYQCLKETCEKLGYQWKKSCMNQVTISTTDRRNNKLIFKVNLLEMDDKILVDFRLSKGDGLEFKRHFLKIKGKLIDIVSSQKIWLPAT

TrKA = TrKA (Homo sapiens, UniProt P04629); test: Kinase profiling at 1 μM: TrKA; assay type: biochemical
TrKA, sequence (P04629 33-796): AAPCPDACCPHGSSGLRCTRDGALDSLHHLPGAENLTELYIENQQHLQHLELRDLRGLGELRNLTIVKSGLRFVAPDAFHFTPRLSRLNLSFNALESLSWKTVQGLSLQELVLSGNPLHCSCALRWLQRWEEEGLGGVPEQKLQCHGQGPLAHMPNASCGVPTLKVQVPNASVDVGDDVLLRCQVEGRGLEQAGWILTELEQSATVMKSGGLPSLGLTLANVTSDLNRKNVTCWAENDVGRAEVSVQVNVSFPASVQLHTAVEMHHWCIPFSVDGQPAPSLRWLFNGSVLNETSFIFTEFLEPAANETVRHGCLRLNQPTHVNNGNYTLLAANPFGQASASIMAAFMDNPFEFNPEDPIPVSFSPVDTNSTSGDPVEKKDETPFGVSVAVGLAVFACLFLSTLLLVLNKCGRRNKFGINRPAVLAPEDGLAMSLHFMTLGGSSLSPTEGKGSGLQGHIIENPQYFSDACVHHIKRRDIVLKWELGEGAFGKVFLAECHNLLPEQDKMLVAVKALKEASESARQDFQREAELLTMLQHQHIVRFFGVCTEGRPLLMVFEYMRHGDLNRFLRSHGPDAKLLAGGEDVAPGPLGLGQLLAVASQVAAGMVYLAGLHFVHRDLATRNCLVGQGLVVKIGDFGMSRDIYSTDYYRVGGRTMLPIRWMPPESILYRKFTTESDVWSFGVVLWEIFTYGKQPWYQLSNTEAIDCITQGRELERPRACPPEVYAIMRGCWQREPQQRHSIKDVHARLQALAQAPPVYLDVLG

CDK1 [10] = target: T1, CDK1; test: biochemical
CHK1 [11] = target: T2, CHK1; settings: HT29
[12] = In vitro metabolism in male CD1 mouse microsomes; assay type: in vitro ADME; settings: 10 μM, 30 minutes at 37°C, NADPH and UDPGA
[13] = system: SW620 colon carcinoma cell line; test: Cell cycle analysis; assay type: cell-based, human
CHK1 [14] = target: T2, CHK1; test: Cell-based ELISA for G2 checkpoint abrogation
SW620 xenografts = test: SW620 xenograft, combination with gemcitabine; assay type: in vivo, mouse; settings: 75mg/kg p.o. with gemcitabine 100mg/kg i.v.
[15] = Plasma pharmacokinetics in BALB/c mice; assay type: in vivo, mouse; settings: for AUC0-∞ / peak plasma concentration: BALB/c mice
Calu6 [16] = test: cells; settings: Homo sapiens, Calu-6, 96 h
[17] = system: four human tumor cell lines; test: cells
SW620 [18] = system: SW620
FLT3 = FLT3 (Homo sapiens, UniProt P36888); test: FLT3 IC50 determination; assay type: biochemical
FLT3, sequence (P36888 27-993): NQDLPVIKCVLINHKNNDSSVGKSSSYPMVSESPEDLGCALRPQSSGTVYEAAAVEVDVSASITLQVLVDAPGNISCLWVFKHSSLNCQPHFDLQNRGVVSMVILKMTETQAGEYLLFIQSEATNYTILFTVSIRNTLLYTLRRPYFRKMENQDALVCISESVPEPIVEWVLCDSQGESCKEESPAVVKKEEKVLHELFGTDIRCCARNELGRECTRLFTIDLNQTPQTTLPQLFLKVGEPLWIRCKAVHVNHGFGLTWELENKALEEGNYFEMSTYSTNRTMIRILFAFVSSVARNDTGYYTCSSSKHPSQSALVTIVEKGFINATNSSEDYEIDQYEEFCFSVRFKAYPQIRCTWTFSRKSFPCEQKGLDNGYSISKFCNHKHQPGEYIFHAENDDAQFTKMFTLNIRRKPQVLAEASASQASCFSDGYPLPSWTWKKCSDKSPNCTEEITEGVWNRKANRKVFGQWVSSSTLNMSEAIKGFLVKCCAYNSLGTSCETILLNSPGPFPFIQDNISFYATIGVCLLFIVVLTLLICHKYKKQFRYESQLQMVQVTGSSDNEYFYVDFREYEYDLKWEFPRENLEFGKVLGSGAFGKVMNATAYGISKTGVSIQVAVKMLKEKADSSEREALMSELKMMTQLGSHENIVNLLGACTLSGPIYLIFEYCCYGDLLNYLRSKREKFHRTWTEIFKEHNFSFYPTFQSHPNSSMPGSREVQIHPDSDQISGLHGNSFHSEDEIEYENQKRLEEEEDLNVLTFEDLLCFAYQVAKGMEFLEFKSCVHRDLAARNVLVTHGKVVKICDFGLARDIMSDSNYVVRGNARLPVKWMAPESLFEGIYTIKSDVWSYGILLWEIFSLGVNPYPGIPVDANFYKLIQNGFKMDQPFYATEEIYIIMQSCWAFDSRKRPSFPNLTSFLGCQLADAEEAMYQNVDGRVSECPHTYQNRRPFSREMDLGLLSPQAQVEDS

AMPK = test: Kinase profiling at 1 μM: AMPK; assay type: biochemical, human
CHK1 [19] = target: T2, CHK1; test: Cell-based ELISA for G2 checkpoint abrogation; remark: listed apart in the source
[20] = system: HT29 colon carcinoma cells; test: Cell cycle analysis; assay type: cell-based, human
CHK1 [21] = target: T2, CHK1; test: Kinase profiling at 1 μM: CHK1; assay type: biochemical
Calu6 xenografts = test: Calu6 xenograft growth delay, combination with gemcitabine; assay type: in vivo, mouse
CHK1 [22] = target: T2, CHK1; test: Cell-based ELISA for G2 checkpoint abrogation; remark: listed apart in the source
120-140 human kinases = test: In vitro kinase profiling at 1 and 10 μM, ATP at Km; assay type: biochemical
IRAK 1 = IRAK 1 (Homo sapiens, UniProt P51617); test: Kinase profiling at 1 μM: IRAK 1; assay type: biochemical
IRAK 1, sequence (P51617 whole entry): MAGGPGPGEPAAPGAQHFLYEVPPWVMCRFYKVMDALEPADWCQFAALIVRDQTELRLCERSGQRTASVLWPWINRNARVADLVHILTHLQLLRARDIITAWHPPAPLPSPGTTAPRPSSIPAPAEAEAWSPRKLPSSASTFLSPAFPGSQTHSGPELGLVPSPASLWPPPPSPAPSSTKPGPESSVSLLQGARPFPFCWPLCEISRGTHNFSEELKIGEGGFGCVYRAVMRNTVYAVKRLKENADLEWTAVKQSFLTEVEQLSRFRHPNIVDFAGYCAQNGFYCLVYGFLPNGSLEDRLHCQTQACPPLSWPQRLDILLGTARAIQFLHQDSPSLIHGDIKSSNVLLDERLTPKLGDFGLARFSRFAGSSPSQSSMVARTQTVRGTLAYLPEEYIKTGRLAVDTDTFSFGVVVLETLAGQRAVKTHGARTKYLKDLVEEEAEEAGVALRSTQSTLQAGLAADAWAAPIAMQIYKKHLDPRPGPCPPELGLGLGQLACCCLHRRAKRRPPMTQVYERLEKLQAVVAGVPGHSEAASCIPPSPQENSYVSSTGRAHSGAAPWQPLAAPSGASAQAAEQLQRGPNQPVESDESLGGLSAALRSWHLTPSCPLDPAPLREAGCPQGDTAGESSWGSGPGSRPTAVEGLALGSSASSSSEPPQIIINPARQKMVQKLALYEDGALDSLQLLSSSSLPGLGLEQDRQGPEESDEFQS

SW620 [23] = test: cells; settings: Homo sapiens, SW-620, 96 h
MAP4K = test: Kinase profiling at 1 μM: MAP4K; assay type: biochemical, human
[24] = BALB/c, mouse, in vivo, po, 10 mg/kg
[25] = 0.5μM for 23h following etoposide 25μM × 1h

NUAK1, sequence (O60285 whole entry): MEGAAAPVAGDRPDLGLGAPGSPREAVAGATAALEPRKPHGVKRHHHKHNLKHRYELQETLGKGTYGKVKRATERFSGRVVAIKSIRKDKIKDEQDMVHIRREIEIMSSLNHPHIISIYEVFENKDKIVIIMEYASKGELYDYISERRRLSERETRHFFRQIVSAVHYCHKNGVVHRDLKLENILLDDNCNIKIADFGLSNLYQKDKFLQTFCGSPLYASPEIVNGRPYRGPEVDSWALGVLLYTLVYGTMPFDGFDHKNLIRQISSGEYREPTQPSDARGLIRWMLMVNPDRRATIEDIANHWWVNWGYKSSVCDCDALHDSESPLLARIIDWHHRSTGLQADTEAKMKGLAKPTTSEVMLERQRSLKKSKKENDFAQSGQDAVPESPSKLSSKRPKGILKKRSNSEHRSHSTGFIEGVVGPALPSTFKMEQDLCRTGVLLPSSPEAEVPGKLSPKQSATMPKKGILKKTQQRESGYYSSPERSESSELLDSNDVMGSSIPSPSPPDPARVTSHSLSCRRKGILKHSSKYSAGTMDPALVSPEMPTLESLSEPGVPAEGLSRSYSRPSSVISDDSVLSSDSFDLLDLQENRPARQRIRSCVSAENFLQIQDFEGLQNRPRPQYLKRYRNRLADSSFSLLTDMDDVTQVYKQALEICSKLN

For `C[C@H](CN(C)C)Oc1nc(Nc2cc3cccc(Cl)c3cn2)cnc1C#N` [SAR-020106], the “enhancement of gemcitabine activity” value (SW620 cells; exposures <24h) was “minimal enhancement” and the “continuous exposure giving maximum potentiation of gemcitabine cytotoxicity” value (SW620 cells; gemcitabine) was ≥ 48 h.

In the case of `COc1cc(Nc2cnc(C#N)c(O[C@H](C)CN(C)C)n2)ncc1-c1cnn(C)c1` [CCT244747], the inhibition (RSK) is reported as > 50%, the inhibition at 1 µM (NUAK1) is reported as > 50% and the “Potentiation Index (PI)” value (HT29 [1]; 5FU) is reported as 2.2±0.2 (n=3). For the same compound, the “Potentiation Index (PI)” value (HT29 [1]; 5FdU) was 9.6±1.2 (n=3), the “Potentiation Index (PI)” value (HT29 [1]; CDDP) was 1.8±0.32 (n=3) and the “Potentiation Index (PI)” value (HT29 [1]; Etop) was 1.9±0.63 (n=4). For the same compound, the “Potentiation Index (PI)” value (HT29 [1]; Gem) was 8.5±1.6 (n=4), the “Potentiation Index (PI)” value (HT29 [1]; IR +1h) was 3.0±0.67 (n=4) and the “Potentiation Index (PI)” value (HT29 [1]; IR −1h) was 3.9±0.32 (n=4). The “Potentiation Index (PI)” value (HT29 [1]; SN38, SRB GI50 / Combination GI50) was 1.9±0.14 (n=4), the IC50 (recombinant human CHK1) was 8 nM and the “Potentiation Index (PI)” value (MiaPaCa-2; Gem) was 16±6.3 (n=5). The “Potentiation Index (PI)” value (MiaPaCa-2; SN38) was 5.0±0.82 (n=5), the fraction unbound at 1 h, 10 μM [2] was 0.244 and the inhibition at 1 µM (Aurora B) was > 50%. For the same compound, the growth delay (HT29 xenografts; 75mg/kg p.o. added to gemcitabine 100mg/kg i.v.) was 11.4 days, the antitumor effect alone (HT29 xenografts; 75mg/kg p.o. alone) was “minimal effect” and the “difference in growth delay, combination versus gemcitabine alone” value (HT29 xenografts; P<0.001) was 9.1 days. For the same compound, the body weight loss (HT29 xenografts; combination with gemcitabine) was “minimal body weight loss”, the “abolition of S317 and S345 CHK1 phosphorylation” value [3] was “neither phosphorylation was completely abolished” and the “selectivity against CDK1” value (CDK1 [4]) was “more than 1,000 fold”. The “effect on gemcitabine induced S296 CHK1 autophosphorylation in vivo” value [5] was “significantly decreased”, the GI50 (HT29 [6]) was 620 ± 230 nM and the tolerability ([7]; TH-MYCN mice, 100mg/kg p.o. × 7 days) was “well tolerated with no drug-related morbidity”. For the same compound, the “effect on tumor versus vehicle treated controls (final tumor weight)” value ([7]; TH-MYCN neuroblastoma, 100mg/kg p.o. × 7 days, P<0.001) was “significant tumor shrinkage”, the “tumor volume reduction by MRI” value ([7]; TH-MYCN neuroblastoma, 100mg/kg p.o. × 7 days, one example tumor) was 79% and the “post-treatment tumor volume (MRI)” value ([7]; TH-MYCN neuroblastoma, 100mg/kg p.o. × 7days, pre-treatment 1960mm^3) was 417 mm^3. The IC50 (CHK2) was > 10000 nM, the “selectivity against CHK2” value (CHK2; versus CHK1) was “more than 1,000 fold” and the “Potentiation Index (PI)” value (Calu6 [8]; Gem) was 5.6±0.96 (n=3). For the same compound, the “Potentiation Index (PI)” value (Calu6 [8]; SN38) was 1.4±0.24 (n=3), the growth delay (HT29 tumors; 150mg/kg p.o. added to irinotecan 25mg/kg i.p.) was 13.5 days and the growth delay (HT29 tumors; 150mg/kg p.o. alone) was 0.3 days. For the same compound, the “nadir of body weight loss” value (HT29 tumors; combination with irinotecan, day 10) was 1.3%, the IC50 (CHK1 [9]) was 170 ± 5.8 nM and the inhibition at 1 µM (TrKA) was > 50%. The IC50 (CDK1 [10]) was > 10000 nM, the “therapeutic window (ratio of MIA and GI50)” value (CHK1 [11]) was 21 fold and the microsomal metabolism [12] was 45%. For the same compound, the “effect alone on the cell cycle” value ([13]; alone, up to 1μM × 24h) was “minimal effects”, the “increase in G1” value ([13]; with gemcitabine 10nM × 24h) was 4.4% and the “increase in S'-phase” value ([13]; with gemcitabine 10nM × 24h) was 19%. The “reduction in S-phase” value ([13]; with gemcitabine 10nM × 24h) was 28.8%, the IC50 (CHK1 [14]) was 29 to 170 nM and the “antitumor activity combined with gemcitabine” value (SW620 xenografts) was “Modest activity”. For the same compound, the “AUC0-∞” value ([15]; 10mg/kg i.v.) was 3.93 μMh, the peak plasma concentration ([15]; 10mg/kg i.v., at 5 min) was 3.62 µM and the “AUC0-∞” value ([15]; 10mg/kg oral) was 2.43 μMh. It also gave a peak plasma concentration ([15]; 10mg/kg oral) of 0.98 µM, a clearance ([15]; BALB/c, mouse, in vivo, 10 mg/kg) of 103 mL/min/kg and a half-life ([15]; BALB/c, mouse, in vivo, iv, 10 mg/kg) of 40.2 min. It also gave a bioavailability [15, 24] of 62%, a half-life [15, 24] of 55.2 min and a GI50 (Calu6 [16]) of 330 ± 51 nM. The GI50 [17] was 330 to 3000 nM, the “Potentiation Index (PI)” value (SW620 [18]; 5FU) was 4.9±0.8 (n=3) and the “Potentiation Index (PI)” value (SW620 [18]; 5FdU) was 47±14 (n=3). The “Potentiation Index (PI)” value (SW620 [18]; CDDP) was 4.2±0.87 (n=3), the “Potentiation Index (PI)” value (SW620 [18]; Etop) was 4.9±2.2 (n=3) and the “Potentiation Index (PI)” value (SW620 [18]; Gem) was 12.2±2.7 (n=5). The “Potentiation Index (PI)” value (SW620 [18]; IR +1h) was 4.9±1.6 (n=4), the “Potentiation Index (PI)” value (SW620 [18]; IR −1h) was 4.5±1.2 (n=4) and the “Potentiation Index (PI)” value (SW620 [18]; SN38) was 2.6±0.6 (n=3). For the same compound, the IC50 (FLT3) was 600 nM, the “selectivity against FLT3” value (FLT3; versus CHK1) was 75 fold and the inhibition (AMPK) was > 50%. For the same compound, the IC50 (CHK1 [19]) was 44 ± 10 nM, the “further cells accumulating in G2/M” value ([20]; 0.1μM with SN38 20nM × 24h) was 33.8% and the “reduction of SN38-induced S-phase arrest” value ([20]; 0.1μM with SN38 20nM × 24h) was 42.3%. For the same compound, the “increase in G1” value [20, 25] was 9.6%, the “loss of G2/M cells” value [20, 25] was 30% and the “S' population (S-phase cells not incorporating BrdU)” value ([20]; 0.5μM for 23h following etoposide, increased from 1.2) was 17.7%. For the same compound, the “effect alone on the cell cycle” value ([20]; alone, up to 0.5μM × 24h) was “minimal effects”, the “S'-phase cells” value ([20]; increasing concentrations with SN38 20nM × 24h, increased from 5) was 42.1% and the “inhibition of CHK1 in kinase profiling” value (CHK1 [21]) was “marked inhibition”. The growth delay (Calu6 xenografts; Calu6 xenografts, 75mg/kg p.o. added to gemcitabine 100mg/kg i.v.) was 15.9 days, the “antitumor activity of each agent alone” value (Calu6 xenografts; Calu6 xenografts, CCT244747 75mg/kg p.o. or gemcitabine 100mg/kg i.v. alone) was “minimal activity” and the “increase in growth delay, combination versus gemcitabine alone” value (Calu6 xenografts; Calu6 xenografts, P<0.001) was 8.7 days. For the same compound, the “nadir of body weight loss” value (Calu6 xenografts; combination with gemcitabine, day 8) was 5.4%, the IC50 (CHK1 [22]) was 94 ± 66 nM and the “number of kinases with >50% inhibition” value (120-140 human kinases; 1μM, panel of 140 kinases) was 8. For the same compound, the “number of kinases inhibited by ≥80%” value (120-140 human kinases; 10μM, total of 121 kinases) was 9, the inhibition at 1 µM (IRAK 1) was > 50% and the GI50 (SW620 [23]) was 3000 ± 1200 nM. The inhibition (MAP4K) was > 50%.

For `COc1cc([C@@H]2c3cc4c(cc3[C@@H](O[C@@H]3O[C@@H]5CO[C@@H](C)O[C@H]5[C@H](O)[C@H]3O)[C@H]3COC(=O)[C@H]23)OCO4)cc(OC)c1O` [etoposide, reference compound], the “cells in G2/M” value ([20]; etoposide 25μM × 1h, measured at 24h) was 70.5%.
